Results reported in patent US8334316B2, “Substituted organosulfur compounds and methods of using thereof” (ACEA Biosciences, Inc., priority 2004, dated 2012).
Several values for one entry are separate records, joined by “and”; a condition that tells them apart may be missing. Identical values can stand only once. Marks after values point to notes of the source that are not given here.

Legend:
[1] = test system: microtubules in COS cells; experiment: Microtubule network in cultured COS cells (anti-tubulin immunofluorescence, confocal microscopy); format: cell-based
Method: Cell Culture and Immunocytochemistry. COS cells were grown in DMEM media supplemented with non-essential amino acids, 10% FBS, antibiotic-antimycotic (Gibco BRL) at 37° C. and 5.5% CO2. […] Cells were then rinsed once with warm PBS, fixed with cold methanol, rinsed again in PBS and blocked overnight at 4° C. in PBT (PBS, 1% BSA, 0.5% Triton X-100). All subsequent stains and washes were done in PBT at room temperature unless stated otherwise. Cells were stained with the anti-tubulin mouse antibody DM-1 at 1:1000 for 1 hour, washed four times for 15 minutes each and then treated with Cy-3 conjugated goat anti mouse antibody at 1:100 for 1 hour in the dark. Next, samples were washed four times for 15 minutes each in PBT in the dark followed by a final 15 minute wash in PBS in the dark. Samples were then viewed by laser scanning confocal microscopy.

[2] = test system: mouse Lewis lung cancer; experiment: In vivo antitumor efficacy, mouse Lewis lung cancer model, Example 3 (ACEA100108); conditions: for Inhibition rate (%): vs solvent control
Method: For human tumor xenograft models, cancer cells were passed twice in vivo before being transplanted into the nude mice for the study. Cultured human cancer cells in flask were first xenograft-transplanted in immunodeficient nude mice. After the cancer cells grew to a tumor of certain sizes in the nude mice, the tumor was removed form the nude mice and tumor tissues were dissected. The cell suspensions were prepared from the dissected tumor tissue and transplanted back to immunodeficient nude mice again (i.e. the second passage of cancer cells in human cancer xenograft-transplanted model). After the cancer cells grew to certain size, the tumor was removed from nude mice and the tumor tissues were dissected. The cell suspensions were prepared from dissected tissues and were used for the study of human cancer xenograft models described here.
Both male and female mice were used. However, for each experiment, animals of same sex were used. For the mouse transplanted tumor model, the numbers of animals tested were as follows: 10 for each dose group, 10 for positive control group and 20 for negative control group. For human tumor xenograft model, the numbers of animals tested were as follows: 6 for each dose group, 6 for positive control group and 12 for negative control group.
Test control. For negative control, each mouse was administered intravenously with the solvent only having the same volume and same concentration as those used in high dose ACEA100108 test, once a day, for 7 consecutive days. […] In a reference group, DBTS was administered intravenously at 50 mg/kg, once a day for 7 consecutive days.
Preparation and Administration of Test Compounds. […] Each time before use, this solution was diluted in normal saline to achieve desired ACEA100108 concentrations. Each mouse (about 20 g in weight) was administered intravenously with the compound solution of 0.5 mL at a controlled injection speed of 0.5 ml/0.5 min. 24 hrs after the tumor transplantation, intravenous injections of compound solutions into carrier mice were performed once a day, for consecutive 7 or 10 days.
Preparation of Tumor Cells for Transplantation and Determination of Compound Efficacy. To prepare the cancer cells for mouse Lewis lung cancer model, human breast cancer xenograft model and human colon cancer xenograft model, the fast growing tumors were first removed from the transplanted tumor mice. The tumor tissues were dissected and tumor cell suspensions were prepared in normal saline to have a concentration of 2-4×10^7 cells/ml. 0.2 ml of cell suspension was subcutaneously injected into the axillary region (right-side) of each mouse. […] Between two and four weeks after transplantation, mice were sacrificed and the transplanted tumors were removed from experimental mice.

[3] = test system: HCT-8 human colon cancer; experiment: HCT-8 human colon cancer xenograft in nude mice (Example 3); format: in vivo; conditions: for tumor inhibition rate %: vs solvent control
Source text: Both male and female mice were used. […] Test control. […] Preparation and Administration of Test Compounds. […] For human tumor xenograft model, all used materials, including animal food, animal cage, supporting materials and apparatus contacted by animals, were high-pressure sterilized. Nude mice were maintained in laminar flow shelves under SPF condition. After tumor transplantation, mouse weight and tumor size in each compound dosage group were dynamically monitored and plotted.

[4] = 8 mg/kg/d iv x7 qd, 7 day after transplantation
[5] = 20 mg/kg/d iv x7 qd, 7 day after transplantation
[6] = 20 mg/kg/d iv x7 qd, 25 d (end)
[7] = 50 mg/kg/d iv x7 qd, 7 day after transplantation

Fc1ccc(CSSSCc2ccc(F)cc2)cc1 [ACEA100108, Di(p-fluorobenzyl)trisulfide]
Microtubule network appearance ([1]; 4 hours exposure): the microtubule network is markedly altered at all concentrations tested
Microtubule network appearance ([1]; 24 hours, 1 uM and 3 uM): appear relatively normal
Microtubule network appearance ([1]; 24 hours, 9 uM): the microtubules appear short and the network is abnormal
Animal No. beginning/end (survival) ([2]; 6.25 mg/kg/d iv x7 qd): 10/10
Animal weight (g) beginning ([2]; 6.25 mg/kg/d iv x7 qd): 20.3 g
Animal weight (g) end ([2]; 6.25 mg/kg/d iv x7 qd): 24.4 g
Tumor weight ([2]; 6.25 mg/kg/d iv x7 qd): 1.78 ± 0.24 g
Inhibition rate (%) ([2]; 6.25 mg/kg/d iv x7 qd): 34.32%
Animal No. beginning/end (survival) ([2]; 25 mg/kg/d iv x7 qd): 10/10
Animal weight (g) beginning ([2]; 25 mg/kg/d iv x7 qd): 20.1 g
Animal weight (g) end ([2]; 25 mg/kg/d iv x7 qd): 24.2 g
Tumor weight ([2]; 25 mg/kg/d iv x7 qd): 1.21 ± 0.22 g
Inhibition rate (%) ([2]; 25 mg/kg/d iv x7 qd): 55.35%
Animal No. beginning/end (survival) ([2]; 100 mg/kg/d iv x7 qd): 10/8
Animal weight (g) beginning ([2]; 100 mg/kg/d iv x7 qd): 20.6 g
Animal weight (g) end ([2]; 100 mg/kg/d iv x7 qd): 23.4 g
Tumor weight ([2]; 100 mg/kg/d iv x7 qd (text: administered only 5 times because of toxicity)): 1.08 ± 0.17 g
Inhibition rate (%) ([2]; 100 mg/kg/d iv x7 qd (text: only 5 times because of toxicity)): 60.15%
TV inhibition rate % T/C ([3]; 8 mg/kg/d iv x7 qd): 55.73%
Tumor weight ([3]; 8 mg/kg/d iv x7 qd): 1.30 ± 0.23 g
Mouse Body weight ([3]; 8 mg/kg/d iv x7 qd, 0 Day (beginning)): 18.8 g and 18.8 ± 0.8 g
Mouse Body weight ([3]; 8 mg/kg/d iv x7 qd, 7 d): 19.7 ± 0.8 g
Mice with palpable tumor / total mice [3, 4]: 6/6††
Tumor volume (cm^3) [3, 4]: 0.01 cm^3
Mouse Body weight ([3]; 8 mg/kg/d iv x7 qd, 14 d): 21.3 ± 1.2 g
Tumor volume (cm^3) ([3]; 8 mg/kg/d iv x7 qd, 14 d): 0.166 ± 0.05 cm^3
Mouse Body weight ([3]; 8 mg/kg/d iv x7 qd, 21 d): 21.8 ± 1.2 g
Tumor volume (cm^3) ([3]; 8 mg/kg/d iv x7 qd, 21 d): 0.379 ± 0.04 cm^3
Mouse Body weight ([3]; 8 mg/kg/d iv x7 qd, 25 d (end)): 22.5 g and 22.5 ± 1 g
Tumor volume (cm^3) ([3]; 8 mg/kg/d iv x7 qd, 25 d (end)): 0.870 cm^3 and 0.87 ± 0.15 cm^3
tumor inhibition rate % ([3]; 8 mg/kg/d iv x7 qd): 15.03%
TV inhibition rate % T/C ([3]; 20 mg/kg/d iv x7 qd): 41.89%
Tumor weight ([3]; 20 mg/kg/d iv x7 qd): 1.10 ± 0.23 g
Mouse Body weight ([3]; 20 mg/kg/d iv x7 qd, 0 Day (beginning)): 18.5 g and 18.5 ± 1 g
Mouse Body weight ([3]; 20 mg/kg/d iv x7 qd, 7 d): 19.5 ± 1 g
Mice with palpable tumor / total mice [3, 5]: 6/6††
Tumor volume (cm^3) [3, 5]: 0.01 cm^3
Mouse Body weight ([3]; 20 mg/kg/d iv x7 qd, 14 d): 20.7 ± 1 g
Tumor volume (cm^3) ([3]; 20 mg/kg/d iv x7 qd, 14 d): 0.122 ± 0.04 cm^3
Mouse Body weight ([3]; 20 mg/kg/d iv x7 qd, 21 d): 21.8 ± 1.2 g
Tumor volume (cm^3) ([3]; 20 mg/kg/d iv x7 qd, 21 d): 0.317 ± 0.05 cm^3
Mouse Body weight [3, 6]: 22.5 g and 22.5 ± 1 g
Tumor volume (cm^3) [3, 6]: 0.654 cm^3 and 0.654 ± 0.09 cm^3
tumor inhibition rate % ([3]; 20 mg/kg/d iv x7 qd): 28.10%
TV inhibition rate % T/C ([3]; 50 mg/kg/d iv x7 qd): 33.63%
Tumor weight ([3]; 50 mg/kg/d iv x7 qd): 0.832 ± 0.10 g
Mouse Body weight ([3]; 50 mg/kg/d iv x7 qd, 0 Day (beginning)): 18.3 g and 18.3 ± 1 g
Mouse Body weight ([3]; 50 mg/kg/d iv x7 qd, 7 d): 17.7 ± 1.2 g
Mice with palpable tumor / total mice [3, 7]: 6/6††
Tumor volume (cm^3) [3, 7]: 0.01 cm^3
Mouse Body weight ([3]; 50 mg/kg/d iv x7 qd, 14 d): 17.8 ± 2.3 g
